Results on 25 molecules are retold here after patent US10189840B2, “Substituted tricyclic heterocyclic compounds” (BRISTOL-MYERS SQUIBB COMPANY, priority 2015, dated 2019).

Structures are written as SMILES.

In general, IC50 refers to the midpoint of a concentration-inhibition curve.

TNFα, sequence (P01375 77-233): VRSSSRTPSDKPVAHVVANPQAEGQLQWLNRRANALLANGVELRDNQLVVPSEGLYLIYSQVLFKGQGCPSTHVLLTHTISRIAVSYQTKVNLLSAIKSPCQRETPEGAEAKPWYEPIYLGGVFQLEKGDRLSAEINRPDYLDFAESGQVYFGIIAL

The test deals with TNFα (Homo sapiens (Human), UniProt P01375). Put plainly: TNF induced HEK-Blue assay. It counts as cell-based. The note with it: TNFα 0.5 ng/ml; HEK-Blue-CD40L cells, NF-κB-driven secreted alkaline phosphatase reporter; 18 h. As to the method:
Test compounds serially diluted in DMSO were plated in an assay plate (Labcyte, Cat. #LP-0200) at final concentrations ranging from 0.004 μM to 25 μM. TNFα (final concentration 0.5 ng/ml) or CD40L (final concentration 30 ng/ml) in assay buffer [DMEM, 4.5 g/l glucose (Gibco, Cat. 21063-029), 10% FBS (Sigma, F4135), 1% Penicillin-Streptomycin (Gibco, Cat. 15140-122), 1% Anti-Anti (Gibco, Cat. 15240-112) and 2 mM L-glutamine (Gibco, Cat. 25030-081)] was then added to the assay plate. After a 30 minute pre-incubation at 37° C. and 5% CO2, HEK-Blue-CD40L cells (InvivoGen, Cat. Code hkb-cd40) containing a NF-κB-driven secreted alkaline phosphatase reporter gene were seeded into the assay plate at a density of 20,000 cells per well. This plate was then incubated for 18 h at 37° C. and 5% CO2. Secreted alkaline phosphatase expression was measured using QUANTI-Blue (InvivoGen, Cat. Code rep-qb1) according to manufacturer's specifications and the assay plate was read on a PerkinElmer Envision at 620 nm.
Inhibition data for the test compound over a range of concentrations was plotted as percentage inhibition of the test compound (100%=maximum inhibition). IC50 values were determined after correcting for background [(sample read−mean of low control)/(mean of high control−mean of low control)] where by the low control is DMSO without stimulation and high control is DMSO with stimulation. The IC50 is defined as the concentration of test compound which produces 50% inhibition and was quantified using the 4 parameter logistic equation to fit the data.
Table 5 lists the IC50 values measured in the TNF induced HEK-Blue assay for Examples 1 to 40 of this invention.
For `CC(C)(O)c1ccc(-c2ccc3nc4n(c3n2)C(c2ccccc2C(F)(F)F)CC4)cc1` (single isomer, unassigned) [Example 25 (e2), 2-(4-(8-(2-(Trifluoromethyl)phenyl)-7,8-dihydro-6H-pyrrolo[2′,1′:2,3]imidazo[4,5-b]pyridin-2-yl)phenyl)propan-2-ol], the IC50 was under 1000 nM.

With `CC(C)(O)c1ccc(-c2ccc3nc4n(c3n2)C(c2ccccc2OC(F)F)CC4)cc1` (single isomer, unassigned) [Example 26 (e1), 2-(4-(8-(2-(difluoromethoxy)phenyl)-7,8-dihydro-6H-pyrrolo[2′,1′:2,3]imidazo[4,5-b]pyridin-2-yl)phenyl)propan-2-ol], the IC50 is under 1000 nM.

`CC(C)(O)c1ccc(-c2ccc3nc4n(c3n2)C(c2ccccc2OC(F)F)CC4)cc1` (single isomer, unassigned) [Example 26 (e2), 2-(4-(8-(2-(difluoromethoxy)phenyl)-7,8-dihydro-6H-pyrrolo[2′,1′:2,3]imidazo[4,5-b]pyridin-2-yl)phenyl)propan-2-ol] displayed an IC50 of 10000 to 25000 nM.

Regarding `CC(C)(O)c1ccc(-c2ccc3nc4n(c3n2)C(c2c(F)cccc2C(F)(F)F)CC4)cc1` (single isomer, unassigned) [Example 32 (e1), 2-(4-(8-(2-fluoro-6-(trifluoromethyl)phenyl)-7,8-dihydro-6H-pyrrolo[2′,1′:2,3]imidazo[4,5-b]pyridin-2-yl)phenyl)propan-2-ol], the IC50 was under 1000 nM.

`CC(C)(O)c1ccc(-c2ccc3nc4n(c3n2)C(c2ccccc2C2CC2)CC4)cc1` (single isomer, unassigned) [Example 33 (e1), 2-(4-(8-(2-cyclopropylphenyl)-7,8-dihydro-6H-pyrrolo[2′,1′:2,3]imidazo[4,5-b]pyridin-2-yl)phenyl)propan-2-ol] showed an IC50 of under 1000 nM.

`CC(C)(O)c1ccc(-c2ccc3nc4n(c3n2)C(c2ccccc2C2CC2)CC4)cc1` (single isomer, unassigned) [Example 33 (e2), 2-(4-(8-(2-cyclopropylphenyl)-7,8-dihydro-6H-pyrrolo[2′,1′:2,3]imidazo[4,5-b]pyridin-2-yl)phenyl)propan-2-ol] gave an IC50 of 1000 to 10000 nM.

Molecule `CC(C)(O)c1ccc(-c2ccc3nc4n(c3n2)C(c2cc(F)ccc2C(F)(F)F)CC4)cc1` (single isomer, unassigned) [Example 34 (e1), 2-(4-(8-(5-fluoro-2-(trifluoromethyl)phenyl)-7,8-dihydro-6H-pyrrolo[2′,1′:2,3]imidazo[4,5-b]pyridin-2-yl)phenyl)propan-2-ol] displayed an IC50 of under 1000 nM.

Molecule `CC(C)(O)c1ccc(-c2ccc3nc4n(c3n2)C(c2cc(F)ccc2C(F)(F)F)CC4)cc1` (single isomer, unassigned) [Example 34 (e2), 2-(4-(8-(5-fluoro-2-(trifluoromethyl)phenyl)-7,8-dihydro-6H-pyrrolo[2′,1′:2,3]imidazo[4,5-b]pyridin-2-yl)phenyl)propan-2-ol] showed an IC50 of 1000 to 10000 nM.

In turn, `CC(C)(O)c1ccc(-c2ccc3nc4n(c3n2)C(c2c(F)cccc2C(F)(F)F)CC4O)cc1` (stereo not shown) [Example 3 (e4), 8-(2-fluoro-6-(trifluoromethyl)phenyl)-2-(4-(2-hydroxypropan-2-yl)phenyl)-7,8-dihydro-6H-pyrrolo[2′,1′:2,3]imidazo[4,5-b]pyridin-6-ol] registered an IC50 of 1000 to 10000 nM.

For `Cc1ccc(C)c(C2CC(O)c3nc4ccc(-c5ccc(C(C)(C)O)cc5)nc4n32)c1` (stereo not shown) [Example 4 (DM), 8-(2,5-dimethylphenyl)-2-(4-(2-hydroxypropan-2-yl)phenyl)-7,8-dihydro-6H-pyrrolo[2′,1′:2,3]imidazo[4,5-b]pyridin-6-ol], the IC50 is under 1000 nM.

`Cc1ccc(C)c(C2CC(O)c3nc4ccc(-c5cnc(C(C)(C)O)nc5)nc4n32)c1` (stereo not shown) [Example 5 (DM), 8-(2,5-dimethylphenyl)-2-(2-(2-hydroxypropan-2-yl)pyrimidin-5-yl)-7,8-dihydro-6H-pyrrolo[2′,1′:2,3]imidazo[4,5-b]pyridin-6-ol] gave an IC50 of under 1000 nM.

`Cc1ccc(C)c(C2CC(O)c3nc4ccc(-c5cnc(N6CCOCC6)nc5)nc4n32)c1` (stereo not shown) [Example 6 (DM), 8-(2,5-dimethylphenyl)-2-(2-morpholinopyrimidin-5-yl)-7,8-dihydro-6H-pyrrolo[2′,1′:2,3]imidazo[4,5-b]pyridin-6-ol] registered an IC50 of under 1000 nM.

As to `Cc1ccc(C(F)(F)F)cc1C1CC(O)c2nc3ccc(-c4ccc(C(C)(C)O)cc4)nc3n21` (stereo not shown) [Example 7 (DM), 2-(4-(2-hydroxypropan-2-yl)phenyl)-8-(2-methyl-5-(trifluoromethyl)phenyl)-7,8-dihydro-6H-pyrrolo[2′,1′:2,3]imidazo[4,5-b]pyridin-6-ol], the IC50 was in the range of 1000 to 10000 nM.

`CC(C)(O)c1ccc(-c2ccc3nc4n(c3n2)C(c2cc(C(F)(F)F)ccc2C(F)(F)F)CC4O)cc1` (stereo not shown) [Example 8 (DM), 8-(2,5-bis(trifluoromethyl)phenyl)-2-(4-(2-hydroxypropan-2-yl)phenyl)-7,8-dihydro-6H-pyrrolo[2′,1′:2,3]imidazo[4,5-b]pyridin-6-ol]: the IC50 fell in the range of 1000 to 10000 nM.

Regarding `CC(C)(O)c1ccc(-c2ccc3nc4n(c3n2)C(c2ccccc2C2CC2)CC4O)cc1` (stereo not shown) [Example 9 (e1), 8-(2-cyclopropylphenyl)-2-(4-(2-hydroxypropan-2-yl)phenyl)-7,8-dihydro-6H-pyrrolo[2′,1′:2,3]imidazo[4,5-b]pyridin-6-ol], the IC50 was under 1000 nM.

In turn, `OC1CC(c2ccccc2OC(F)F)n2c1nc1ccc(-c3cnc(N4CCOCC4)nc3)nc12` (stereo not shown) [Example 10 (DM), 8-(2-(difluoromethoxy)phenyl)-2-(2-morpholinopyrimidin-5-yl)-7,8-dihydro-6H-pyrrolo[2′,1′:2,3]imidazo[4,5-b]pyridin-6-ol] showed an IC50 of under 1000 nM.

Turning to `CC(C)(O)c1ncc(-c2ccc3nc4n(c3n2)C(c2ccccc2OC(F)F)CC4O)cn1` (stereo not shown) [Example 11 (e1), 8-(2-(difluoromethoxy)phenyl)-2-(2-(2-hydroxypropan-2-yl)pyrimidin-5-yl)-7,8-dihydro-6H-pyrrolo[2′,1′:2,3]imidazo[4,5-b]pyridin-6-ol], the IC50 was under 1000 nM.

In the case of `CC(C)(O)c1ncc(-c2ccc3nc4n(c3n2)C(c2ccccc2OC(F)F)CC4O)cn1` (stereo not shown) [Example 11 (e4), 8-(2-(difluoromethoxy)phenyl)-2-(2-(2-hydroxypropan-2-yl)pyrimidin-5-yl)-7,8-dihydro-6H-pyrrolo[2′,1′:2,3]imidazo[4,5-b]pyridin-6-ol], the IC50 is 1000 to 10000 nM.

`CC(C)(O)c1ccc(-c2ccc3nc4n(c3n2)C(c2ccccc2OC(F)F)CC4F)cc1` (stereo not shown) [Example 15 (DM), 2-(4-(8-(2-(difluoromethoxy)phenyl)-6-fluoro-7,8-dihydro-6H-pyrrolo[2′,1′:2,3]imidazo[4,5-b]pyridin-2-yl)phenyl)propan-2-ol]: the IC50 was under 1000 nM.

For `CC(C)(O)c1ccc(-c2ccc3nc4n(c3n2)C(c2ccccc2OC(F)F)CC4F)cc1` (stereo not shown) [Example 15 (e1), 2-(4-(8-(2-(difluoromethoxy)phenyl)-6-fluoro-7,8-dihydro-6H-pyrrolo[2′,1′:2,3]imidazo[4,5-b]pyridin-2-yl)phenyl)propan-2-ol], the IC50 is under 1000 nM.

In turn, `CC(C)(O)c1ccc(-c2ccc3nc4n(c3n2)C(c2ccccc2OC(F)F)CC4F)cc1` (stereo not shown) [Example 15 (e4), 2-(4-(8-(2-(difluoromethoxy)phenyl)-6-fluoro-7,8-dihydro-6H-pyrrolo[2′,1′:2,3]imidazo[4,5-b]pyridin-2-yl)phenyl)propan-2-ol] registered an IC50 of 10000 to 25000 nM.

Consider `CC(C)(O)c1ncc(-c2ccc3nc4n(c3n2)C(c2ccccc2OC(F)F)CC4F)cn1` (stereo not shown) [Example 16 (DM), 2-(5-(8-(2-(difluoromethoxy)phenyl)-6-fluoro-7,8-dihydro-6H-pyrrolo[2′,1′:2,3]imidazo[4,5-b]pyridin-2-yl)pyrimidin-2-yl)propan-2-ol], for which the IC50 was under 1000 nM.

The molecule `CC(C)(O)c1ncc(-c2ccc3nc4n(c3n2)C(c2ccccc2OC(F)F)CC4F)cn1` (stereo not shown) [Example 16 (e2), 2-(5-(8-(2-(difluoromethoxy)phenyl)-6-fluoro-7,8-dihydro-6H-pyrrolo[2′,1′:2,3]imidazo[4,5-b]pyridin-2-yl)pyrimidin-2-yl)propan-2-ol] yielded an IC50 of under 1000 nM.

Consider `CC(C)(O)c1ncc(-c2ccc3nc4n(c3n2)C(c2ccccc2OC(F)F)CC4F)cn1` (stereo not shown) [Example 16 (e3), 2-(5-(8-(2-(difluoromethoxy)phenyl)-6-fluoro-7,8-dihydro-6H-pyrrolo[2′,1′:2,3]imidazo[4,5-b]pyridin-2-yl)pyrimidin-2-yl)propan-2-ol], for which the IC50 lay within 10000 to 25000 nM.

On to `CC(C)(O)c1ncc(-c2ccc3nc4n(c3n2)C(c2ccccc2OC(F)F)CC4F)cn1` (stereo not shown) [Example 16 (e4), 2-(5-(8-(2-(difluoromethoxy)phenyl)-6-fluoro-7,8-dihydro-6H-pyrrolo[2′,1′:2,3]imidazo[4,5-b]pyridin-2-yl)pyrimidin-2-yl)propan-2-ol], for which the IC50 is under 1000 nM.
